Experimental data from patent US20240279207A1, “SUBSTITUTED ACYL SULFONAMIDES FOR TREATING CANCER” (The Broad Institute, Inc., priority 2020, published 2024).
pIC50: −log10 of the molar value. Read-outs that look alike come from different tables or passages of the source.

Experiments:
[1] = biological target: T1, Recombinant human His-tagged Kat6a protein (amino acids 194-810) (Homo sapiens, UniProt Q92794); assay: Kat6a activity assay (TR-FRET, acetylation of Histone-H4-derived peptide); format: biochemical; settings: 60 mins at 22° C., 220 nM H4 peptide, 600 nM Acetyl Coenzyme A, read-out: KAT6A - DPF/HAT domain IC50 [mol/l] (arithmetic mean)
T1 construct: Kat6a protein (amino acids 194-810); His
Protocol: Kat6a inhibitory activities of the compounds described in the present invention were quantified using a Fluorescence Resonance Energy Transfer (TR-FRET) assay which measures acetylation of a synthetic, biotinylated Histone-H4-derived peptide by the enzyme.
In this case 50 nl DMSO were used instead of compounds. […] IC50 values were determined by regression analysis based on a 4 parameter equation (minimum, maximum, ICM, Hill; Y=Max+(Min−Max)/(1+(X/ICso) Hill) using the Screener Software (Genedata).

[2] = test system: ESR1 transcription in MVLN cells; assay: MVLN reporter assay: repression of ESR1 transcription (luciferase signal); format: cell-based; settings: Homo sapiens, luciferase signal after 24 h, read-out: MVLN reporter assay, IC50 [M] (arithmetic mean)
Source text: KAT6A controls transcription of the ESR1 gene in breast cancer cells. Compound treatment that interferes with this mechanism was quantified using MVLN cells. These cells constitutively express the ER and are stably transfected with the luciferase (LUC) reporter gene and the corresponding hormone responsive element derived from the 5′-flanking region of the Xenopus Vitellogenin A2 gene (Pons et al., 1990, Demirpense et al., 1993, Joyeux et al., 1993). The repressive effect on ERα transcription activity of a test chemical is directly related to the luciferase measured in the lysate of treated MVLN cells. […] Each sample was prepared as duplicate and rim wells were excluded. For luciferase signal determination 100 μl of a 1:1 mixture of Steadylite plus (Perkin Elmer; 6016759) and assay medium was added after 24 h for 15 minutes and measured in Victor X3 (Perkin Elmer). To exclude any effects caused by cell loss during the treatment, cell density was determined using Alamar Blue (Invitrogen; DAL1100). Prior to the luciferase measurement 10 μl Alamar Blue were added to each well and the plates were incubated for 2 h in the incubator. Then fluorescence was measured with Victor X3 (Perkin Elmer) at 530 nm/590 nm.

T1 sequence (Q92794 194-810): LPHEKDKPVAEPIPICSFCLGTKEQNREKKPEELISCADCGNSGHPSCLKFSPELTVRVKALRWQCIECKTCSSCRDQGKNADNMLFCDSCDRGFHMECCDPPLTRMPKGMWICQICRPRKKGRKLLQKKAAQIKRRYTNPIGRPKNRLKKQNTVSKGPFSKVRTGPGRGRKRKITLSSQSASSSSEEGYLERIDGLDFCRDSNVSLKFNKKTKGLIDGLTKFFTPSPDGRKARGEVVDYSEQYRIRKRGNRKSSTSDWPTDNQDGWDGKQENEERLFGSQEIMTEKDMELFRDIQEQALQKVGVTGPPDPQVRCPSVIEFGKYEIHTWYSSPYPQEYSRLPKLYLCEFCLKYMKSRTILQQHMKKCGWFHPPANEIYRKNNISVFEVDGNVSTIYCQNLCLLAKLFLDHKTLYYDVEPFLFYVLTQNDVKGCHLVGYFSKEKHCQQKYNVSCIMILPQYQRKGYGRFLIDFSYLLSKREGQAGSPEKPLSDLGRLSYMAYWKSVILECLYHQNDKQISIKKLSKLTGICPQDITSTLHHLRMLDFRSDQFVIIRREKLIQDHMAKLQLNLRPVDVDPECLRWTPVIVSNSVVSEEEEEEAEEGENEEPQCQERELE

Compound `CC(Oc1ccccc1S(=O)(=O)NC(=O)c1cc2c(F)cc(N3CCC3)cc2o1)C(F)(F)F` (racemic) [Example 13, 6-(Azetidin-1-yl)-4-fluoro-N-(2-{[-1,1,1-trifluoropropan-2-yl]oxy}benzene-1-sulfonyl)-1-benzofuran-2-carboxamide (rac)] has a pIC50 [1] of 7.72 and an IC50 ([2]; MVLN, 24 h) of 1.66e-07 M.

Compound `CC(O)c1ccc(Cl)c(S(=O)(=O)NC(=O)c2cc3c(F)cc(N4CCC4)cc3o2)c1` (racemic) [Example 100, 6-(Azetidin-1-yl)-N-[2-chloro-5-(1-hydroxyethyl)benzene-1-sulfonyl]-4-fluoro-1-benzofuran-2-carboxamide (rac)] has a pIC50 [1] of 6.86 and an IC50 ([2]; MVLN, 24 h) of 1.29e-06 M.

Compound `CCOc1ccccc1S(=O)(=O)NC(=O)c1cc2c(F)cc(N3CCC3CNC(=O)OC)cc2o1` (racemic) [Example 105, Methyl {[1-{2-[(2-ethoxybenzene-1-sulfonyl)carbamoyl]-4-fluoro-1-benzofuran-6-yl}azetidin-2-yl]methyl}carbamate (rac)] has a pIC50 [1] of 5.95 and an IC50 ([2]; MVLN, 24 h) of over 2e-05 M.

Compound `CCOc1ccccc1S(=O)(=O)NC(=O)c1cc2c(F)cc(N3CC[C@@H]3C(N)=O)cc2o1` (racemic) [Example 169, 1-{2-[(2-Ethoxybenzene-1-sulfonyl)carbamoyl]-4-fluoro-1-benzofuran-6-yl}azetidine-2-carboxamide (rac)] has a pIC50 [1] of 5.39 and an IC50 ([2]; MVLN, 24 h) of over 2e-05 M.

In the case of `COc1ccc2cccnc2c1S(=O)(=O)NC(=O)c1cc2c(F)cc(N3CCC3)cc2o1` [Example 8, 6-(Azetidin-1-yl)-4-fluoro-N-(7-methoxyquinoline-8-sulfonyl)-1-benzofuran-2-carboxamide], the pIC50 [1] was 7.68 and the IC50 ([2]; MVLN, 24 h) was 1.25e-07 M.

For `Cc1ccc(OC2CCCC2)c(S(=O)(=O)NC(=O)c2cc3c(F)cc(N4CCC4)cc3o2)c1` [Example 9, 6-(Azetidin-1-yl)-N-[2-(cyclopentyloxy)-5-methylbenzene-1-sulfonyl]-4-fluoro-1-benzofuran-2-carboxamide], the pIC50 [1] was 7.67 and the IC50 ([2]; MVLN, 24 h) was 1.34e-07 M.

`CN(C)c1ccccc1S(=O)(=O)NC(=O)c1cc2c(F)cc(N3CCC3)cc2o1` [Example 11, 6-(Azetidin-1-yl)-N-[2-(dimethylamino)benzene-1-sulfonyl]-4-fluoro-1-benzofuran-2-carboxamide] gave a pIC50 [1] of 7.12 and an IC50 ([2]; MVLN, 24 h) of 1.45e-07 M.

`O=C(NS(=O)(=O)c1cccc2c1OCCC2)c1cc2c(F)cc(N3CCC3)cc2o1` [Example 12, 6-(Azetidin-1-yl)-N-(3,4-dihydro-2H-1-benzopyran-8-sulfonyl)-4-fluoro-1-benzofuran-2-carboxamide] was tested, and the pIC50 [1] was 7.37 and the IC50 ([2]; MVLN, 24 h) was 1.63e-07 M.

Compound `O=C(NS(=O)(=O)c1c(F)cccc1OC1CCC1)c1cc2c(F)cc(N3CCC3)cc2o1` [Example 16, 6-(Azetidin-1-yl)-N-[2-(cyclobutyloxy)-6-fluorobenzene-1-sulfonyl]-4-fluoro-1-benzofuran-2-carboxamide] has a pIC50 [1] of 7.36 and an IC50 ([2]; MVLN, 24 h) of 1.69e-07 M.

Work on `CC1Cc2cccc(S(=O)(=O)NC(=O)c3cc4c(F)cc(N5CCC5)cc4o3)c2O1` (centres unmarked) [Example 18, 6-(Azetidin-1-yl)-4-fluoro-N-[2-methyl-2,3-dihydro-1-benzofuran-7-sulfonyl]-1-benzofuran-2-carboxamide] yielded a pIC50 [1] of 7.62 and an IC50 ([2]; MVLN, 24 h) of 1.92e-07 M.

With `CC1(C)Cc2cccc(S(=O)(=O)NC(=O)c3cc4c(F)cc(N5CCC5)cc4o3)c2O1` [Example 21, 6-(Azetidin-1-yl)-N-(2,2-dimethyl-2,3-dihydro-1-benzofuran-7-sulfonyl)-4-fluoro-1-benzofuran-2-carboxamide] the pIC50 [1] was 7.26 and the IC50 ([2]; MVLN, 24 h) was 2.98e-07 M.

`O=C(NS(=O)(=O)c1ccccc1I)c1cc2c(F)cc(N3CCC3)cc2o1` [Example 22, 6-(Azetidin-1-yl)-4-fluoro-N-(2-iodobenzene-1-sulfonyl)-1-benzofuran-2-carboxamide] gave a pIC50 [1] of 7.47 and an IC50 ([2]; MVLN, 24 h) of 3.19e-07 M.

`CCOc1cccc(C(C)C)c1S(=O)(=O)NC(=O)c1cc2c(F)cc(N3CCC3)cc2o1` [Example 23, 6-(Azetidin-1-yl)-N-[2-ethoxy-6-(propan-2-yl)benzene-1-sulfonyl]-4-fluoro-1-benzofuran-2-carboxamide] gave a pIC50 [1] of 7.54 and an IC50 ([2]; MVLN, 24 h) of 2.72e-07 M.

Compound `O=C(NS(=O)(=O)c1c(F)cccc1C1CCC1)c1cc2c(F)cc(N3CCC3)cc2o1` [Example 24, 6-(Azetidin-1-yl)-N-(2-cyclobutyl-6-fluorobenzene-1-sulfonyl)-4-fluoro-1-benzofuran-2-carboxamide] has a pIC50 [1] of 7.33 and an IC50 ([2]; MVLN, 24 h) of 3e-07 M.

Work on `CCOc1cccc(C)c1S(=O)(=O)NC(=O)c1cc2c(F)cc(N3CCC3)cc2o1` [Example 25, 6-(Azetidin-1-yl)-N-(2-ethoxy-6-methylbenzene-1-sulfonyl)-4-fluoro-1-benzofuran-2-carboxamide] yielded a pIC50 [1] of 6.83 and an IC50 ([2]; MVLN, 24 h) of 3.26e-07 M.

`COc1ccc(Cl)c(C)c1S(=O)(=O)NC(=O)c1cc2c(F)cc(N3CCC3)cc2o1` [Example 27, 6-(Azetidin-1-yl)-N-(3-chloro-6-methoxy-2-methylbenzene-1-sulfonyl)-4-fluoro-1-benzofuran-2-carboxamide] showed a pIC50 [1] of 7.30 and an IC50 ([2]; MVLN, 24 h) of 3.54e-07 M.

Work on `CC(C)Oc1cccc(C(F)(F)F)c1S(=O)(=O)NC(=O)c1cc2c(F)cc(N3CCC3)cc2o1` [Example 28, 6-(Azetidin-1-yl)-4-fluoro-N-{2-[(propan-2-yl)oxy]-6-(trifluoromethyl)benzene-1-sulfonyl}-1-benzofuran-2-carboxamide] yielded a pIC50 [1] of 6.87 and an IC50 ([2]; MVLN, 24 h) of 3.56e-07 M.

`CC(C)Oc1cccc(Cl)c1S(=O)(=O)NC(=O)c1cc2c(F)cc(N3CCC3)cc2o1` [Example 29, 6-(Azetidin-1-yl)-N-{2-chloro-6-[(propan-2-yl)oxy]benzene-1-sulfonyl}-4-fluoro-1-benzofuran-2-carboxamide] gave a pIC50 [1] of 7.30 and an IC50 ([2]; MVLN, 24 h) of 3.79e-07 M.

Work on `CC(C)c1ccc(C(C)C)c(S(=O)(=O)NC(=O)c2cc3c(F)cc(N4CCC4)cc3o2)c1` [Example 30, 6-(Azetidin-1-yl)-N-[2,5-di(propan-2-yl)benzene-1-sulfonyl]-4-fluoro-1-benzofuran-2-carboxamide] yielded a pIC50 [1] of 7.61 and an IC50 ([2]; MVLN, 24 h) of 4.18e-07 M.

Work on `CCCOc1cccc(CCC)c1S(=O)(=O)NC(=O)c1cc2c(F)cc(N3CCC3)cc2o1` [Example 31, 6-(Azetidin-1-yl)-4-fluoro-N-(2-propoxy-6-propylbenzene-1-sulfonyl)-1-benzofuran-2-carboxamide] yielded a pIC50 [1] of 7.46 and an IC50 ([2]; MVLN, 24 h) of 5.02e-07 M.

`Cc1ccc(C(C)C)cc1S(=O)(=O)NC(=O)c1cc2c(F)cc(N3CCC3)cc2o1` [Example 32, 6-(Azetidin-1-yl)-4-fluoro-N-[2-methyl-5-(propan-2-yl)benzene-1-sulfonyl]-1-benzofuran-2-carboxamide] was tested, and the pIC50 [1] was 7.47 and the IC50 ([2]; MVLN, 24 h) was 5.11e-07 M.

`CCc1cccc(OCC2CC2)c1S(=O)(=O)NC(=O)c1cc2c(F)cc(N3CCC3)cc2o1` [Example 33, 6-(Azetidin-1-yl)-N-[2-(cyclopropylmethoxy)-6-ethylbenzene-1-sulfonyl]-4-fluoro-1-benzofuran-2-carboxamide] was tested, and the pIC50 [1] was 7.13 and the IC50 ([2]; MVLN, 24 h) was 5.37e-07 M.

In the case of `CCc1ccc(C)c(S(=O)(=O)NC(=O)c2cc3c(F)cc(N4CCC4)cc3o2)c1` [Example 34, 6-(Azetidin-1-yl)-N-(5-ethyl-2-methylbenzene-1-sulfonyl)-4-fluoro-1-benzofuran-2-carboxamide], the pIC50 [1] was 7.22 and the IC50 ([2]; MVLN, 24 h) was 5.79e-07 M.

Work on `Cc1ccc(S(=O)(=O)NC(=O)c2cc3c(F)cc(N4CCC4)cc3o2)c(OC(F)F)c1` [Example 35, 6-(Azetidin-1-yl)-N-[2-(difluoromethoxy)-4-methylbenzene-1-sulfonyl]-4-fluoro-1-benzofuran-2-carboxamide] yielded a pIC50 [1] of 7.38 and an IC50 ([2]; MVLN, 24 h) of 6.09e-07 M.

`CCc1csc(C)c1S(=O)(=O)NC(=O)c1cc2c(F)cc(N3CCC3)cc2o1` [Example 36, 6-(Azetidin-1-yl)-N-(4-ethyl-2-methylthiophene-3-sulfonyl)-4-fluoro-1-benzofuran-2-carboxamide] gave a pIC50 [1] of 6.44 and an IC50 ([2]; MVLN, 24 h) of 6.04e-07 M.

For `CC(C)Oc1cccc(Br)c1S(=O)(=O)NC(=O)c1cc2c(F)cc(N3CCC3)cc2o1` [Example 39, 6-(Azetidin-1-yl)-N-{2-bromo-6-[(propan-2-yl)oxy]benzene-1-sulfonyl}-4-fluoro-1-benzofuran-2-carboxamide], the IC50 ([2]; MVLN, 24 h) was 7.88e-07 M.

`CN(C(=O)Oc1ccccc1S(=O)(=O)NC(=O)c1cc2c(F)cc(N3CCC3)cc2o1)c1ccccc1` [Example 62, 2-{[6-(Azetidin-1-yl)-4-fluoro-1-benzofuran-2-carbonyl]sulfamoyl}phenyl methyl(phenyl)carbamate] showed an IC50 [2] of 6.43e-06 M.

In the case of `COc1ccc(C2=CCN(C(=O)OC(C)(C)C)CC2)cc1S(=O)(=O)NC(=O)c1cc2c(F)cc(N3CCC3)cc2o1` [Example 197, tert-butyl 4-(3-{[6-(azetidin-1-yl)-4-fluoro-1-benzofuran-2-carbonyl]sulfamoyl}-4-methoxyphenyl)-3,6-dihydropyridine-1(2H)-carboxylate], the IC50 ([2]; MVLN, 24 h) was 1.62e-07 M.
